In paper PMC5218480 (PLoS ONE, 2017):
pIC50: −log10 of the molar value.

Biological target: T1, HDAC3 (Homo sapiens, UniProt O15379)
T1 construct: purchased BPS Biosciences
Test: HDAC enzyme assay, in vitro biochemical
Conditions: pre-incubated 24 hours at 4°C; n = 3; read-out: IC50 against HDAC3
Description: In vitro biochemical assays were performed as described previously. Specifically, compounds were dissolved and diluted in assay buffer (50 mM HEPES, pH 7.4, 100 mM KCl, 0.001% Tween-20, 0.05% BSA, and 20 μM Tris (2-carboxyethyl) phosphine) to 6-fold the final concentration. […] The amount of substrate (acetyl-lysine tripeptide) used for each enzyme was equal to the Michaelis constant (Km), as determined by a titration curve. Substrate was diluted in assay buffer to 6-fold of the final concentration with 0.3 μM sequencing grade trypsin (Sigma-Aldrich). The substrate/trypsin mix was added to the enzyme/compound mix and the plate was shaken for 5 seconds and then placed into a SpectraMax M5 microtiter (Molecular Devices) plate reader. The enzymatic reaction was monitored over 30 minutes for release of […] after deacetylation of the lysine side chain in the peptide substrate, and the linear rate of the reaction was calculated.

T1 sequence (O15379 whole entry): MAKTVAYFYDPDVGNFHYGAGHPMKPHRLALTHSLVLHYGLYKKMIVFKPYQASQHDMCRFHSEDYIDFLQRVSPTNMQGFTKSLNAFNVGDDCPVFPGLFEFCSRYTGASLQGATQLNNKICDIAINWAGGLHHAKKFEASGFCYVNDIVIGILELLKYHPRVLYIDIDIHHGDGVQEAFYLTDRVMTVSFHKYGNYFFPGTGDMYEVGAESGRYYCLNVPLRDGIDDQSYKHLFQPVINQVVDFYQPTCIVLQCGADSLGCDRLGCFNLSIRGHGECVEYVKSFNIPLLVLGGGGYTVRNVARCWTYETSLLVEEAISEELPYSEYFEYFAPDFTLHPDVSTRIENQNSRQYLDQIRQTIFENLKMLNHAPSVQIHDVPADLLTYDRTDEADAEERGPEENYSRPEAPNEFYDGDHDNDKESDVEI
T1 sequence (Q9Y618 395-489 partner limits assumed): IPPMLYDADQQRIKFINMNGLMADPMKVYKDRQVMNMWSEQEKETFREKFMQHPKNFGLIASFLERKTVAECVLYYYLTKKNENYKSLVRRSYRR

Compound: Nc1ccc(-c2cccs2)cc1NC(=O)c1ccc2c(c1)cc(C1CC1)n2CCN1CCOCC1 [ACY-1035]
- pIC50: 5.70
